The record followed here is ChEMBL document CHEMBL6109156, “Discovery of Dual PD-L1/HDAC3 Inhibitors for Tumor Immunotherapy” (J Med Chem, 2025).

Activity calls are given as the source filed them. The rule behind the calls is not given here. Where only a bound is given, the exact number is not on record here.

Data set [1] relates to B16-F10. Briefly: Immunomodulatory activity in mouse B16-F10 cells implanted in C57BL/6J mouse assessed as percentage of CD3 positive CD8 positive cells in tumor at 20 mg/kg, ip administered once daily for 9 days by flow cytometric analysis (reference value: 0.44 %). Format: functional. To be noted: time 9 day. Background: A flow cytometer gives signals particle by particle.

For data set [2], the system named is B16-F10. Briefly: Induction of cell cycle arrest in mouse B16-F10 cells assessed as accumulation of cells at G2/M phase at 4 uM incubated for 48 hrs by PI staining based flow cytometry analysis (reference value: 5.87%). The format is functional.
Data set [3] concerns B16-F10. Briefly: Immunomodulatory activity in mouse B16-F10 cells implanted in C57BL/6J mouse assessed as percentage of CD3 positive CD8 positive cells in tumor at 10 mg/kg, ip administered once daily for 9 days in presence of MS-275 by flow cytometric analysis (reference value: 0.44 %). Format: functional. To be noted: time 9 day.
A further data set has as its system A-375. Briefly: Antiproliferative activity against human A-375 cells assessed as cell growth inhibition incubated for 48 hrs by MTT assay. The format is functional, cell-based. To be noted: A-375, 48 h. A general note: Tetrazolium dyes change colour on reduction, which living cells bring about.
Data set [4] concerns B16-F10. Briefly: Induction of apoptosis in mouse B16-F10 cells assessed as late apoptotic cells at 4 uM incubated for 48 hrs by Annexin V-FITC/PI staining based flow cytometry analysis (reference value: 5.02 %). The format is functional.
In the next data set the test system is 4T1. Briefly: Antiproliferative activity against mouse 4T1 cells assessed as cell growth inhibition incubated for 48 hrs by MTT assay. Format: functional, cell-based. To be noted: 4T1, 48 h.
The subject of data set [5] is B16-F10. Briefly: Induction of cell cycle arrest in mouse B16-F10 cells assessed as accumulation of cells at S phase at 4 uM incubated for 48 hrs by PI staining based flow cytometry analysis (reference value: 24.04%). The format is functional.
For a further data set, the system named is HepG2. Briefly: Antiproliferative activity against human HepG2 cells assessed as cell growth inhibition incubated for 48 hrs by MTT assay. The conditions noted are these: HepG2, 48 h. Format: functional, cell-based.
For data set [6], the target named is T1, Programmed cell death protein 1/Programmed cell death 1 ligand 1 (Homo sapiens, UniProt Q9NZQ7). Briefly: Inhibition of PD-1/PD-L1 (unknown origin) interaction assessed as inhibition rate at 1 uM by HTRF assay relative to control. Format: protein-complex assay. (In general: TR-FRET usually uses a lanthanide donor and a delayed reading to cut background.)

For data set [7], the system named is B16-F10. Briefly: Antiproliferative activity against mouse B16-F10 cells assessed as cell growth inhibition incubated for 48 hrs by MTT assay. Format: functional, cell-based. To be noted: B16-F10, 48 h.
Data set [8] has as its target T2, Histone deacetylase 3 (Mus musculus) (UniProt O88895).
T2 sequence (whole entry): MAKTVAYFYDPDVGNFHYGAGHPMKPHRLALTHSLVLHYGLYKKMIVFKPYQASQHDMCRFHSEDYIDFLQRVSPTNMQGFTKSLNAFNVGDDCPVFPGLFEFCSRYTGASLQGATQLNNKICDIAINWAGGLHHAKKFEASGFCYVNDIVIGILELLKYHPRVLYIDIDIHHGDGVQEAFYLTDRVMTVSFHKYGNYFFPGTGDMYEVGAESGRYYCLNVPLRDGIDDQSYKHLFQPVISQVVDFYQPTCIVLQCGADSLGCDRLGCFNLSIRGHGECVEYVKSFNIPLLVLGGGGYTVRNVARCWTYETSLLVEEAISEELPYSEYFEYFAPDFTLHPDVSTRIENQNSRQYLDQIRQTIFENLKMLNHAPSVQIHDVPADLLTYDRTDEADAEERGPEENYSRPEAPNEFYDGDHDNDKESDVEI
Briefly: Inhibition of HDAC3 in mouse B16-F10 cells assessed as upregulation of Ac-H3 level at 3 uM incubated for 24 hrs by Western blotting analysis. The format is cell-based.

Data set [9] is described as follows: Toxicity in C57BL/6J mouse implanted with mouse B16-F10 cells assessed as body weight loss at 20 mg/kg, ip administered once daily for 9 days. The format is organism-based. To be noted: in vivo, 216 h, time 9 day.
The subject of the next data set is HCT-116. Briefly: Antiproliferative activity against human HCT-116 cells assessed as cell growth inhibition incubated for 48 hrs by MTT assay. Format: functional, cell-based. The conditions noted are these: HCT-116, 48 h.
Data set [10] has as its system B16-F10. Briefly: Immunomodulatory activity in mouse B16-F10 cells implanted in C57BL/6J mouse assessed as percentage of CD3 positive CD4 positive cells in tumor at 10 mg/kg, ip administered once daily for 9 days in presence of MS-275 by flow cytometric analysis (reference value: 0.20 %). The format is functional. The conditions noted are these: time 9 day.
Data set [11] is described as follows: Toxicity in C57BL/6J mouse implanted with mouse B16-F10 cells assessed as body weight loss at 20 mg/kg, ip administered once daily for 5 days in presence of MS-275. The format is organism-based. To be noted: in vivo, 120 h, time 5 day.
Data set [12] is described as follows: Toxicity in C57BL/6J mouse implanted with mouse B16-F10 cells assessed as animal death at 20 mg/kg, ip administered once daily for 5 days in presence of MS-275. Format: organism-based. To be noted: in vivo, 120 h, time 5 day.
Data set [13] deals with B16-F10. Briefly: Immunomodulatory activity in mouse B16-F10 cells implanted in C57BL/6J mouse assessed as percentage of CD3 positive CD4 positive cells in tumor at 20 mg/kg, ip administered once daily for 9 days by flow cytometric analysis (reference value: 0.20 %). The conditions noted are these: time 9 day. Format: functional.
For data set [14], the system named is B16-F10. Briefly: Antitumor activity against mouse B16-F10 cells implanted in C57BL/6J mouse assessed as tumor growth inhibition at 20 mg/kg, ip administered once daily for 9 days. The conditions noted are these: B16-F10, 216 h, time 9 day, read-out: TGI. The format is functional.
A further data set concerns the target Histone deacetylase 3 (Homo sapiens, UniProt O15379). Briefly: Inhibition of human recombinant HDAC3 using Ac-Leu-Gly-Lys (Ac)-AMC as substrate preincubated for 10 mins followed by substrate addition and measured after 45 mins by TECAN microtiter plate reader analysis.
In data set [15] the test system is B16-F10. Briefly: Induction of apoptosis in mouse B16-F10 cells assessed as early apoptotic cells at 4 uM incubated for 48 hrs by Annexin V-FITC/PI staining based flow cytometry analysis (reference value: 0.45 %). The format is functional.
Data set [16] has as its target T1, Programmed cell death protein 1/Programmed cell death 1 ligand 1. Briefly: Inhibition of PD-1/PD-L1 (unknown origin) interaction assessed as inhibition rate by HTRF assay. The format is protein-complex assay.
Data set [17] concerns B16-F10. Briefly: Induction of apoptosis in mouse B16-F10 cells assessed as necrotic cells at 4 uM incubated for 48 hrs by Annexin V-FITC/PI staining based flow cytometry analysis (reference value: 2.24%). Format: functional.
Data set [18] concerns B16-F10. Briefly: Induction of cell cycle arrest in mouse B16-F10 cells assessed as accumulation of cells at G0/G1 phase at 4 uM incubated for 48 hrs by PI staining based flow cytometry analysis (reference value: 70.09%). Format: functional.
The subject of another data set is MDA-MB-231. Briefly: Antiproliferative activity against human MDA-MB-231 cells assessed as cell growth inhibition incubated for 48 hrs by MTT assay. Format: functional, cell-based. To be noted: MDA-MB-231, 48 h.
Data set [19] has as its system B16-F10. Briefly: Antitumor activity against mouse B16-F10 cells implanted in C57BL/6J mouse assessed as tumor growth inhibition at 20 mg/kg, ip administered once daily for 9 days in presence of MS-275. The format is functional. The conditions noted are these: B16-F10, 216 h, time 9 day, read-out: TGI.
Data set [20] relates to B16-F10. Briefly: Induction of apoptosis in mouse B16-F10 cells assessed as viable cells at 4 uM incubated for 48 hrs by Annexin V-FITC/PI staining based flow cytometry analysis (reference value: 92.3%). The conditions noted are these: read-out: Activity. Format: functional.
The subject of data set [21] is B16-F10. Briefly: Immunomodulatory activity in mouse B16-F10 cells implanted in C57BL/6J mouse assessed as percentage of CD3 positive CD8 positive cells in tumor at 10 mg/kg, ip administered once daily for 9 days in presence of NP19 by flow cytometric analysis (reference value: 0.44 %). To be noted: time 9 day. The format is functional.
Data set [22] relates to B16-F10. Briefly: Immunomodulatory activity in mouse B16-F10 cells implanted in C57BL/6J mouse assessed as percentage of CD3 positive CD4 positive cells in tumor at 10 mg/kg, ip administered once daily for 9 days in presence of NP19 by flow cytometric analysis (reference value: 0.20 %). The format is functional. The conditions noted are these: time 9 day.
The test system of data set [23] is B16-F10. Briefly: Antitumor activity against mouse B16-F10 cells implanted in C57BL/6J mouse assessed as tumor growth inhibition at 20 mg/kg, ip administered once daily for 9 days in presence of NP19. The format is functional. To be noted: B16-F10, 216 h, time 9 day, read-out: TGI.

T1 sequence (Q15116 whole entry): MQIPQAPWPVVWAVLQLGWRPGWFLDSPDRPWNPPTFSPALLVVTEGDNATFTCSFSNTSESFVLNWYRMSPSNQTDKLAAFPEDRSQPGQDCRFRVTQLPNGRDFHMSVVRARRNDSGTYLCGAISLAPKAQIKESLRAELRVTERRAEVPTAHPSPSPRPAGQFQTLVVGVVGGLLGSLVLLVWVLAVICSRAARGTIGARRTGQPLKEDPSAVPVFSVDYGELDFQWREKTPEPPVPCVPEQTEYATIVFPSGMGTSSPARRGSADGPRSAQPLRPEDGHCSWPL
T1 sequence (Q9NZQ7 whole entry): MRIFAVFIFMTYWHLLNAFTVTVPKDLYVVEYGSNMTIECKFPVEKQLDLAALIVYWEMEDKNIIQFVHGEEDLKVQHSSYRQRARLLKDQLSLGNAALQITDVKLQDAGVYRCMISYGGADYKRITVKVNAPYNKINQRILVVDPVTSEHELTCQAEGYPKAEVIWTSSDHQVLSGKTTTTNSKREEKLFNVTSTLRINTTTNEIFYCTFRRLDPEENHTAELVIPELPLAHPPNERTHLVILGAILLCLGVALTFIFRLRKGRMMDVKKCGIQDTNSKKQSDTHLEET
Sequence of Histone deacetylase 3 (O15379 whole entry): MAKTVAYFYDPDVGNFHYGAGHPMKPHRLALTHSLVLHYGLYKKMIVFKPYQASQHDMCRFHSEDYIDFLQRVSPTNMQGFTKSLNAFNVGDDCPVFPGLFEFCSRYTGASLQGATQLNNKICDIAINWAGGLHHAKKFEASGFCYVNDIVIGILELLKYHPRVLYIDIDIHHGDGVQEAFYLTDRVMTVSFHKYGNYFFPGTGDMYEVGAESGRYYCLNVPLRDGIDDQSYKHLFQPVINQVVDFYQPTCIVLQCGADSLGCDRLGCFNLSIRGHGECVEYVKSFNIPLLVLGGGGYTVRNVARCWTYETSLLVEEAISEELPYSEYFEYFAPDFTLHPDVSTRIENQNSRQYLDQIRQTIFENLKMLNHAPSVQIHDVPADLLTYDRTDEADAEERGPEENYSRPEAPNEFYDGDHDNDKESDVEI

As a reminder, the IC50 is the concentration that gives 50% inhibition. As for `Cc1c(COc2cc(OCc3cccc(C#N)c3)c(CNC(C)(C)C(=O)O)cc2Cl)cccc1-c1ccccc1`, the Activity with B16-F10 [1] is given as 2.68%; in the data set on B16-F10 [2], 5.05%; with B16-F10 [3], 3.34%; in the data set on B16-F10 [4], 3.95%; in the data set on B16-F10 [5], 24.28%; in data set [9], “Non-toxic”. For the same molecule, the Activity in the data set on B16-F10 [10] is reported as 1.89%; in data set [11], “Toxic”; in data set [12], “Toxic”; in the data set on B16-F10 [13] it was 0.78%; with B16-F10 [15] it was 0.47%; in the data set on B16-F10 [17], 1.96%. The Activity with B16-F10 [18] stood at 70.67%. The IC50 is > 50 µM with A-375; > 50 µM in the data set with 4T1; > 50 µM with HepG2; 0.0683 µM in data set [6]; > 50 µM with B16-F10 [7]; > 50 µM with HCT-116. Moreover, the results for the IC50 (at Histone deacetylase 3; in data set [16]; with MDA-MB-231) were > 10 µM, 0.0683 µM and > 50 µM, respectively. Moreover, in data set [8], the inhibition result was “inactive”. In addition, the inhibition in vivo at 20 mg/kg came to 30.8% in the data set on B16-F10 [14] and 37% in the data set on B16-F10 [19]. In the data set on B16-F10 [20], the viability at 4 µM was determined as 93.6%.
For `Nc1ccccc1NC(=O)c1ccc(CNC(=O)OCc2cccnc2)cc1` [ENTINOSTAT], the Activity with B16-F10 [2] was 6.59%; with B16-F10 [4], 12.8%; with B16-F10 [5] it was 5.79%; in the data set on B16-F10 [21], 3.34%; in the data set on B16-F10 [22], 1.89%; in the data set with B16-F10 [15], 7.43%. Further, the Activity with B16-F10 [17] is on record as 5.25%; in the data set with B16-F10 [18], 87.62%. Moreover, the IC50 in the data set on A-375 was 4.91 µM; in the data set on HepG2, 6.32 µM; in [6], > 10 µM; in the data set with HCT-116, 3.54 µM; in the data set on MDA-MB-231, 30.3 µM. Moreover, the inhibition in vivo at 20 mg/kg in the data set with B16-F10 [23] amounted to 37%. In the data set on B16-F10 [20], the viability at 4 µM was 74.5%.
